target: human SGLT2 (Homo sapiens (Human), UniProt P31639); test: Inhibitory effects on human SGLT2 activities (14C-AMG uptake, sodium-dependent glucose transport assay); type: cell-based; details: CHO cells stably expressing hSGLT2, 37° C., 2 h, single determinations
How it was run: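 CHO cells stably expressing hSGLT2 were preincubated 10 min at 37 °C in choline (Na+-free) buffer, then exposed 2 h at 37 °C to compound in Na+ uptake buffer with 8 μM 14C-AMG and 1 mM unlabeled AMG. Radioactivity was scintillation counted; IC50 came from nonlinear regression.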

Sequence of human SGLT2 (P31639 whole entry): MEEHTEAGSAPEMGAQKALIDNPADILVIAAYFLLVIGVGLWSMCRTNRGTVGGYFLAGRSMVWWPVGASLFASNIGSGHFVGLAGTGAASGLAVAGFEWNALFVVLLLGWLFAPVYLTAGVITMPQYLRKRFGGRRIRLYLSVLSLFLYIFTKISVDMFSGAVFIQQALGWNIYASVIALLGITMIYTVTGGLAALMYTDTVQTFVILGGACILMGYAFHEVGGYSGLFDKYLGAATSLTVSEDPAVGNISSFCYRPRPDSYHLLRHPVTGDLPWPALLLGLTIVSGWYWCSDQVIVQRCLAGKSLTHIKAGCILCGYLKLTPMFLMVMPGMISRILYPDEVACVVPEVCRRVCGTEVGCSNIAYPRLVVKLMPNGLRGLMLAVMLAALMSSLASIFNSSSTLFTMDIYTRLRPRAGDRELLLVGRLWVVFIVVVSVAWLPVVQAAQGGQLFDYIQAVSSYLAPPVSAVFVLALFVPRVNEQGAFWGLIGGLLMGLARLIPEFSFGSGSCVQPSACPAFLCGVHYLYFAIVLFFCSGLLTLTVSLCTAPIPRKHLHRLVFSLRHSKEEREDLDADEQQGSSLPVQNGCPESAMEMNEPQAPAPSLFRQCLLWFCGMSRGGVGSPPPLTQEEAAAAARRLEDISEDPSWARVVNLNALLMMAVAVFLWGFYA

| IC50 | Structure (SMILES) |
| --- | --- |
| 3830 pM | COc1ccc(Cc2cc([C@@H]3O[C@H](OC)[C@@H](O)[C@H](O)[C@H]3O)c3c(c2Br)CCC3)cc1 [Example E097, (2S,3R,4R,5S,6S)-2-(7-Bromo-6-(4-methoxybenzyl)-2,3-dihydro-1H-inden-4-yl)-6-methoxy-tetrahydro-2H-pyran-3,4,5-triol] |
| 454 pM | CS[C@H]1O[C@@H](c2cc(Cc3ccc4c(c3)OCCO4)c(Cl)cc2O)[C@H](O)[C@@H](O)[C@@H]1O [Example E098, (2S,3R,4R,5S,6R)-2-(4-Chloro-5-((2,3-dihydrobenzo[b][1,4]dioxin-6-yl)methyl)-2-hydroxyphenyl)-6-(methylthio)-tetrahydro-2H-pyran-3,4,5-triol] |
| 56200 pM | CCc1ccc(C2OCc3ccc([C@@H]4O[C@H](CO)[C@@H](O)[C@H](O)[C@H]4O)cc32)cc1 (stereo partly drawn) [Example E099, (2S,3R,4R,5S,6R)-2-(3-(4-Ethylphenyl)-1,3-dihydroisobenzofuran-5-yl)-6-(hydroxymethyl)-tetrahydro-2H-pyran-3,4,5-triol] |
| 75700 pM | CSc1ccc(C2OCc3ccc([C@@H]4O[C@H](CO)[C@@H](O)[C@H](O)[C@H]4O)cc32)cc1 (stereo partly drawn) [Example E102, (2R,3S,4R,5R,6S)-2-(Hydroxymethyl)-6-(3-(4-(methylthio)phenyl)-1,3-dihydroisobenzofuran-5-yl)-tetrahydro-2H-pyran-3,4,5-triol] |
| 1820 pM | OC[C@H]1O[C@@H](c2cc(Cc3ccc4c(c3)OCCO4)c(Cl)c3c2OCCO3)[C@H](O)[C@@H](O)[C@@H]1O [Example E103, (2S,3R,4R,5S,6R)-2-(8-Chloro-7-((2,3-dihydrobenzo[b][1,4]dioxin-6-yl)methyl)-2,3-dihydrobenzo[b][1,4]dioxin-5-yl)-6-(hydroxymethyl)tetrahydro-2H-pyran-3,4,5-triol] |
| 2000 pM | COc1ccc(Cc2cc([C@@H]3O[C@H](CO)[C@@H](O)[C@H](O)[C@H]3O)c3c(c2Cl)OCCO3)cc1 [Example E104, (2S,3R,4R,5S,6R)-2-(8-Chloro-7-(4-methoxybenzyl)-2,3-dihydrobenzo[b][1,4]dioxin-5-yl)-6-(hydroxymethyl)tetrahydro-2H-pyran-3,4,5-triol] |
| 923 pM | CCc1ccc(Cc2cc([C@@H]3O[C@H](CO)[C@@H](O)[C@H](O)[C@H]3O)c3c(c2Cl)OCCO3)cc1 [Example E105, (2S,3R,4R,5S,6R)-2-(8-Chloro-7-(4-ethylbenzyl)-2,3-dihydrobenzo[b][1,4]dioxin-5-yl)-6-(hydroxymethyl)tetrahydro-2H-pyran-3,4,5-triol] |
| 616 pM | OC[C@H]1O[C@@H](c2cc(Cc3ccc4c(c3)OCCO4)c(Cl)c3c2CCC3)[C@H](O)[C@@H](O)[C@@H]1O [Example E106, (2S,3R,4R,5S,6R)-2-(7-Chloro-6-((2,3-dihydrobenzo[b][1,4]dioxin-6-yl)methyl)-2,3-dihydro-1H-inden-4-yl)-6-(hydroxymethyl)tetrahydro-2H-pyran-3,4,5-triol] |
| 860 pM | Cc1c(Cc2ccc3c(c2)OCCO3)cc([C@@H]2O[C@H](CO)[C@@H](O)[C@H](O)[C@H]2O)c2c1CCC2 [Example E107, (2S,3R,4R,5S,6R)-2-(6-((2,3-Dihydrobenzo[b][1,4]dioxin-6-yl)methyl)-7-methyl-2,3-dihydro-1H-inden-4-yl)-6-(hydroxymethyl)tetrahydro-2H-pyran-3,4,5-triol] |
| 1260 pM | OC[C@H]1O[C@@H](c2cc(Cc3ccc4c(c3)OCCO4)c(C(F)F)c3c2CCC3)[C@H](O)[C@@H](O)[C@@H]1O [Example E108, (2S,3R,4R,5S,6R)-2-(7-(Difluoromethyl)-6-((2,3-dihydrobenzo[b][1,4]dioxin-6-yl)methyl)-2,3-dihydro-1H-inden-4-yl)-6-(hydroxymethyl)tetrahydro-2H-pyran-3,4,5-triol] |
| 29100 pM | CCOc1ccc(Cc2cc([C@@H]3O[C@H](OC)[C@@H](O)[C@H](O)[C@H]3O)c(OC)cc2Cl)cc1 [Example E109, (2S,3R,4R,5S,6S)-2-(4-Chloro-5-(4-ethoxybenzyl)-2-methoxyphenyl)-6-methoxytetrahydro-2H-pyran-3,4,5-triol] |
| 504 pM | C=CCOc1cc(Cl)c(Cc2ccc(OC)cc2)cc1[C@@H]1O[C@H](SC)[C@@H](O)[C@H](O)[C@H]1O [Example E110, (2S,3R,4R,5S,6R)-2-(2-(Allyloxy)-4-chloro-5-(4-methoxybenzyl)phenyl)-6-(methylthio)tetrahydro-2H-pyran-3,4,5-triol] |
| 783 pM | CCOc1ccc(Cc2cc([C@@H]3O[C@H](SC)[C@@H](O)[C@H](O)[C@H]3O)c(OC)cc2Cl)cc1 [Example E111, (2S,3R,4R,5S,6R)-2-(4-Chloro-5-(4-ethoxybenzyl)-2-methoxyphenyl)-6-(methylthio)tetrahydro-2H-pyran-3,4,5-triol] |
| 7440 pM | CCOc1ccc(Cc2cc([C@@H]3O[C@H](S(C)(=O)=O)[C@@H](O)[C@H](O)[C@H]3O)c(OC)cc2Cl)cc1 [Example E112, (2S,3R,4R,5S,6R)-2-(4-Chloro-5-(4-ethoxybenzyl)-2-methoxyphenyl)-6-(methylsulfonyl)tetrahydro-2H-pyran-3,4,5-triol] |
| 551 pM | COc1cc([C@@H]2O[C@H](SC)[C@@H](O)[C@H](O)[C@H]2O)cc(Cc2ccc3c(c2)OCCO3)c1Cl [Example E113, (2S,3R,4R,5S,6R)-2-(4-Chloro-3-((2,3-dihydrobenzo[b][1,4]dioxin-6-yl)methyl)-5-methoxyphenyl)-6-(methylthio)tetrahydro-2H-pyran-3,4,5-triol] |
| 308 pM | CCOc1ccc(Cc2cc([C@@H]3O[C@H](SC)[C@@H](O)[C@H](O)[C@H]3O)cc(OC)c2Cl)cc1 [Example E114, (2S,3R,4R,5S,6R)-2-(4-Chloro-3-(4-ethoxybenzyl)-5-methoxyphenyl)-6-(methylthio)tetrahydro-2H-pyran-3,4,5-triol] |
| 7060 pM | C=CCOc1cc(Cl)c(Cc2ccc(OC)cc2)cc1[C@@H]1O[C@H](OC)[C@@H](O)[C@H](O)[C@H]1O [Example E115, (2S,3R,4R,5S,6S)-2-(2-(Allyloxy)-4-chloro-5-(4-methoxybenzyl)phenyl)-6-methoxytetrahydro-2H-pyran-3,4,5-triol] |
| 475 pM | CN(C)c1ccc(Cc2cc([C@@H]3O[C@H](CO)[C@@H](O)[C@H](O)[C@H]3O)c3c(c2Cl)CCC3)cc1 [Example E116, (2S,3R,4R,5S,6R)-2-(7-Chloro-6-(4-(dimethylamino)benzyl)-2,3-dihydro-1H-inden-4-yl)-6-(hydroxymethyl)tetrahydro-2H-pyran-3,4,5-triol] |
| 742 pM | C=Cc1ccc(Cc2cc([C@@H]3O[C@H](CO)[C@@H](O)[C@H](O)[C@H]3O)c3c(c2Cl)CCC3)cc1 [Example E117, (2S,3R,4R,5S,6R)-2-(7-Chloro-6-(4-vinylbenzyl)-2,3-dihydro-1H-inden-4-yl)-6-(hydroxymethyl)tetrahydro-2H-pyran-3,4,5-triol] |
| 678 pM | OC[C@H]1O[C@@H](c2cc(Cc3ccc(C4CC4)cc3)c(Cl)c3c2CCC3)[C@H](O)[C@@H](O)[C@@H]1O [Example E118, (2S,3R,4R,5S,6R)-2-(7-Chloro-6-(4-cyclopropylbenzyl)-2,3-dihydro-1H-inden-4-yl)-6-(hydroxymethyl)tetrahydro-2H-pyran-3,4,5-triol] |
